A short description of the data set: cyto-toxicity by MTT assay. The settings on record: human, MCF-7 cells; TR4 0.05-50 μM, incubation for 30 min, MCF-7, data not shown; read-out: cellular viability. Format: cell-based. Background: Formazan colour is commonly taken as a measure of viable cells.

The values below come from patent US9835558B2, “Aggregation-induced emission luminogen having an peptide sequence and its uses thereof” (priority 2015, dated 2017).

Residues, ends and D or L forms follow the SMILES beside them. *: point of attachment. X1 = O=C(COc1ccc(C(=C(c2ccccc2)c2ccccc2)c2ccccc2)cc1)*; Palmitoyl = CCCCCCCCCCCCCCCC(=O)*

For the molecule `CCCCCCCCCCCCCCCC(=O)NCCCC[C@H](NC(=O)COc1ccc(C(=C(c2ccccc2)c2ccccc2)c2ccccc2)cc1)C(=O)N[C@@H](CCCNC(=N)N)C(=O)N[C@@H](CCCNC(=N)N)C(=O)N[C@@H](CCCNC(=N)N)C(=O)N[C@@H](CCCNC(=N)N)C(N)=O` [TR4] (X1-K(Palmitoyl)RRRR-NH2), the viability – broadly, the share of living cells, or the viability signal relative to a control – at 0.5 h is over 80%.
